# Results from PubChem BioAssay (NCI).
#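 1) Cells in 96-well plates. 2) Compound, 48 h, 5 concentrations. 3) Linear interpolation between surrounding doses. 4) Unreached endpoint = highest concentration. At the GI50, growth is halved. TGI: total growth inhibition.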
# Test system: LOX IMVI melanoma
# Test: inhibition of tumour cell growth, NCI panel, 48 h
Compound,GI50 [µM],TGI [µM]
Nc1ccc(-c2nc3ccc(Cc4ccc5nc(-c6ccc(N)cc6)[nH]c5c4)cc3[nH]2)cc1,2.28,5.32
O=C1[C@@H]2C(c3ccccc3F)=NO[C@@H]2C(=O)N1c1ccc(Cc2ccc(N3C(=O)[C@H]4C(c5ccccc5F)=NO[C@H]4C3=O)cc2)cc1,,> 100
Cn1c2ccccc2c(=O)c2ccc(Cl)cc21,,> 10
Clc1ccc2c(c1)-c1c3c(nn1-c1ccccc1)-c1ccccc1SC3O2 (stereo unspecified),,> 100
O=C1OC2CCCC[C@@H]2C2C[C@]34CCCCC3[C@@H](C(=O)O4)C12 (stereo partly specified),,> 100
CN(C)c1cc[c]([Sn]([c]2ccc(N(C)C)cc2)([c]2ccc(N(C)C)cc2)[c]2ccc(N(C)C)cc2)cc1,2.89,
CCN(CC)c1ccc(N=Nc2ccc(-c3nc4ccc[n+](C)c4s3)cc2)cc1,,15.8
NC(=O)NCc1c(C(N)=O)ncn1Cc1ccccc1,,> 100
O=C1CSC(/C(=N/Nc2ccccc2)c2nc3ccccc3[nH]2)=N1,,> 100
Cc1[nH]c2ccccc2c(=O)c1CC=C(Cl)Cl,> 100,> 100
O=C(c1ccccc1)C1OC12C(=O)Nc1ccccc12 (stereo unspecified),,> 100
O=C(/C=C\c1ccc(NCc2ccc(C(=O)O)cc2)cc1)CCl,2.17,5.12
COc1cccc(C#Cc2ccccc2C#CCCCCO)c1,6.3,21.2
CC(C)C[C@H](NC(=O)/C=C/Cn1ccc2ccccc2c1=O)B(O)O,2.88,10.7
O=C1/C(=C/c2cccc([N+](=O)[O-])c2)COc2ccc(Br)cc21,,> 100
COc1cccc2c(=O)c3c(sc12)c(N1CCNCC1)nc1ccccc13,1.56,3.01
CSC(C1c2ccccc2N(c2ccc(C)cc2)c2[nH]c(=O)n(C)c(=O)c21)S(=O)(=O)c1ccc(C)cc1 (stereo unspecified),,> 100
CCOC(=O)NC(=O)c1cn(CCCOC(=O)CCCCCCCCCCC(=O)OCCCn2cc(C(=O)NC(=O)OCC)c(=O)[nH]c2=O)c(=O)[nH]c1=O,,> 100
COc1cc2[nH]c(C(=O)c3cc(OC)c(OC)c(OC)c3)c(N)c2cc1C#CC1CC1,4.33,> 100
COc1ccc(/C=C/C(=O)C(CC2CCC2)C(=O)/C=C/c2ccc(OC)c(OC)c2)cc1OC,1.25,2.52
O=c1cc(NC2CCN(CCCc3ccccc3)CC2)c2cc(Cl)ccc2o1,5.8,19.2
COc1cc(/C=C(\C#N)c2ccccc2)cc(OC)c1,,65.4
CC(=O)N[C@H]1CSSC[C@@H](C(N)=O)NC(=O)[C@H](C(C)C)NC(=O)[C@H](C)NC(=O)[C@H](Cc2cnc[nH]2)NC1=O,> 100,> 100
O=C1CC2c3ccccc3CCC2c2ccccc21 (stereo unspecified),,34.3
CCCCCCCCCCCC(=O)OCC1OC(OC)C(NC(=O)N(CCCl)N=O)C(O)C1O (stereo unspecified),,21.6
C=CC/C=C/C/C=C/CCCCCCCc1cccc(O)c1C(=O)O,,> 100
CCCCCCCCCCCCCCCCCCOc1ccccc1CC(=O)OCC[N+]1(C)CCCC1,1.8,3.36
c1ccc(C2Nc3ccccc3C3OCCCC23)cc1 (stereo unspecified),,35.3
CCOc1cc(C(C)(C)C)ccc1C1=N[C@@](C)(c2ccc(Cl)cc2)[C@@](C)(c2ccc(Cl)cc2)N1C(=O)N1CCN(CCCS(C)(=O)=O)CC1,0.438,11

# Test system: NCI-H23 lung
# Test: inhibition of tumour cell growth, NCI panel, 48 h
Compound,GI50 [µM],TGI [µM]
Nc1ccc(-c2nc3ccc(Cc4ccc5nc(-c6ccc(N)cc6)[nH]c5c4)cc3[nH]2)cc1,3.83,22.3
O=C1[C@@H]2C(c3ccccc3F)=NO[C@@H]2C(=O)N1c1ccc(Cc2ccc(N3C(=O)[C@H]4C(c5ccccc5F)=NO[C@H]4C3=O)cc2)cc1,,> 100
Cn1c2ccccc2c(=O)c2ccc(Cl)cc21,,> 10
CC(CO)(CO)NCCCCn1ccc2c1C(=O)c1c(c(O)c3ccccc3c1O)C2=O,15.8,36.4
Clc1ccc2c(c1)-c1c3c(nn1-c1ccccc1)-c1ccccc1SC3O2 (stereo unspecified),,> 100
O=C1OC2CCCC[C@@H]2C2C[C@]34CCCCC3[C@@H](C(=O)O4)C12 (stereo partly specified),,> 100
CN(C)c1cc[c]([Sn]([c]2ccc(N(C)C)cc2)([c]2ccc(N(C)C)cc2)[c]2ccc(N(C)C)cc2)cc1,5.88,32.3
COc1cc(/C=C/c2cc(/C=C/c3ccc(O)c(OC)c3)n(C(=O)Nc3ccc(C)cc3C)n2)ccc1O,0.275,1.25
CCN(CC)c1ccc(N=Nc2ccc(-c3nc4ccc[n+](C)c4s3)cc2)cc1,,24.9
NC(=O)NCc1c(C(N)=O)ncn1Cc1ccccc1,,> 100
O=C1CSC(/C(=N/Nc2ccccc2)c2nc3ccccc3[nH]2)=N1,,> 100
Cc1[nH]c2ccccc2c(=O)c1CC=C(Cl)Cl,50.6,> 100
O=C(c1ccccc1)C1OC12C(=O)Nc1ccccc12 (stereo unspecified),,89.4
O=C(/C=C\c1ccc(NCc2ccc(C(=O)O)cc2)cc1)CCl,15.5,31
COc1cccc(C#Cc2ccccc2C#CCCCCO)c1,12.5,26.1
CC(C)C[C@H](NC(=O)/C=C/Cn1ccc2ccccc2c1=O)B(O)O,5.87,> 100

Compound,GI50 [µM],TGI [µM]
O=C1/C(=C/c2cccc([N+](=O)[O-])c2)COc2ccc(Br)cc21,,> 100
COc1cccc2c(=O)c3c(sc12)c(N1CCNCC1)nc1ccccc13,1.62,3.1
COc1c(CCl)cc(-c2cc(=O)c3ccccc3s2)cc1CCl,,> 100
CSC(C1c2ccccc2N(c2ccc(C)cc2)c2[nH]c(=O)n(C)c(=O)c21)S(=O)(=O)c1ccc(C)cc1 (stereo unspecified),,> 100
CCOC(=O)NC(=O)c1cn(CCCOC(=O)CCCCCCCCCCC(=O)OCCCn2cc(C(=O)NC(=O)OCC)c(=O)[nH]c2=O)c(=O)[nH]c1=O,,> 100
COc1cc2[nH]c(C(=O)c3cc(OC)c(OC)c(OC)c3)c(N)c2cc1C#CC1CC1,7.12,> 100
COc1ccc(/C=C/C(=O)C(CC2CCC2)C(=O)/C=C/c2ccc(OC)c(OC)c2)cc1OC,2.19,5.87
O=c1cc(NC2CCN(CCCc3ccccc3)CC2)c2cc(Cl)ccc2o1,14.6,30.3
COc1cc(/C=C(\C#N)c2ccccc2)cc(OC)c1,,> 100
CC(=O)N[C@H]1CSSC[C@@H](C(N)=O)NC(=O)[C@H](C(C)C)NC(=O)[C@H](C)NC(=O)[C@H](Cc2cnc[nH]2)NC1=O,> 100,> 100
O=C1CC2c3ccccc3CCC2c2ccccc21 (stereo unspecified),,69
C=CC/C=C/C/C=C/CCCCCCCc1cccc(O)c1C(=O)O,,75.9
CN(CCC#N)c1ccc(/C=C(\C#N)c2ccc(Br)cc2)cc1,> 100,> 100
COc1cc(NC(C)CCCN)c2nccc(C)c2c1 (stereo unspecified),,> 100
c1ccc(C2Nc3ccccc3C3OCCCC23)cc1 (stereo unspecified),,> 100
CCOc1cc(C(C)(C)C)ccc1C1=N[C@@](C)(c2ccc(Cl)cc2)[C@@](C)(c2ccc(Cl)cc2)N1C(=O)N1CCN(CCCS(C)(=O)=O)CC1,10.4,24.9

# Test system: UO-31 renal
# Test: inhibition of tumour cell growth, NCI panel, 48 h
Compound,GI50 [µM],TGI [µM]
Nc1ccc(-c2nc3ccc(Cc4ccc5nc(-c6ccc(N)cc6)[nH]c5c4)cc3[nH]2)cc1,45.4,> 100
O=C1[C@@H]2C(c3ccccc3F)=NO[C@@H]2C(=O)N1c1ccc(Cc2ccc(N3C(=O)[C@H]4C(c5ccccc5F)=NO[C@H]4C3=O)cc2)cc1,,> 100
CC(CO)(CO)NCCCCn1ccc2c1C(=O)c1c(c(O)c3ccccc3c1O)C2=O,4.18,> 100
Clc1ccc2c(c1)-c1c3c(nn1-c1ccccc1)-c1ccccc1SC3O2 (stereo unspecified),,> 100
O=C1OC2CCCC[C@@H]2C2C[C@]34CCCCC3[C@@H](C(=O)O4)C12 (stereo partly specified),,> 100
CN(C)c1cc[c]([Sn]([c]2ccc(N(C)C)cc2)([c]2ccc(N(C)C)cc2)[c]2ccc(N(C)C)cc2)cc1,8.76,21.1
COc1cc(/C=C/c2cc(/C=C/c3ccc(O)c(OC)c3)n(C(=O)Nc3ccc(C)cc3C)n2)ccc1O,0.362,1.74
CCN(CC)c1ccc(N=Nc2ccc(-c3nc4ccc[n+](C)c4s3)cc2)cc1,,46
O=C1CSC(/C(=N/Nc2ccccc2)c2nc3ccccc3[nH]2)=N1,,> 100
Cc1[nH]c2ccccc2c(=O)c1CC=C(Cl)Cl,42.8,> 100
C1CCC([PH+](C2CCCCC2)C2CCCCC2[PH+](C2CCCCC2)C2CCCCC2)CC1.O=C(C1[CH-]CCCC1)C1CCCC[N-]1.[Au] (stereo unspecified),1.45,2.76
O=C(c1ccccc1)C1OC12C(=O)Nc1ccccc12 (stereo unspecified),,> 100
